Measured values: patent publication EP3677259A1, “USE OF ARACHIDONYL TRIFLUOROMETHYL KETONE” (Mosaiques Diagnostics And Therapeutics AG, priority 2019, dated 2020)
Read-outs that look alike come from different tables or passages of the source.

Experiments:
[1] = target: T1, GVIA iPLA2 (Homo sapiens, UniProt O60733); details: cited from earlier work
T1 sequence (O60733 1-806): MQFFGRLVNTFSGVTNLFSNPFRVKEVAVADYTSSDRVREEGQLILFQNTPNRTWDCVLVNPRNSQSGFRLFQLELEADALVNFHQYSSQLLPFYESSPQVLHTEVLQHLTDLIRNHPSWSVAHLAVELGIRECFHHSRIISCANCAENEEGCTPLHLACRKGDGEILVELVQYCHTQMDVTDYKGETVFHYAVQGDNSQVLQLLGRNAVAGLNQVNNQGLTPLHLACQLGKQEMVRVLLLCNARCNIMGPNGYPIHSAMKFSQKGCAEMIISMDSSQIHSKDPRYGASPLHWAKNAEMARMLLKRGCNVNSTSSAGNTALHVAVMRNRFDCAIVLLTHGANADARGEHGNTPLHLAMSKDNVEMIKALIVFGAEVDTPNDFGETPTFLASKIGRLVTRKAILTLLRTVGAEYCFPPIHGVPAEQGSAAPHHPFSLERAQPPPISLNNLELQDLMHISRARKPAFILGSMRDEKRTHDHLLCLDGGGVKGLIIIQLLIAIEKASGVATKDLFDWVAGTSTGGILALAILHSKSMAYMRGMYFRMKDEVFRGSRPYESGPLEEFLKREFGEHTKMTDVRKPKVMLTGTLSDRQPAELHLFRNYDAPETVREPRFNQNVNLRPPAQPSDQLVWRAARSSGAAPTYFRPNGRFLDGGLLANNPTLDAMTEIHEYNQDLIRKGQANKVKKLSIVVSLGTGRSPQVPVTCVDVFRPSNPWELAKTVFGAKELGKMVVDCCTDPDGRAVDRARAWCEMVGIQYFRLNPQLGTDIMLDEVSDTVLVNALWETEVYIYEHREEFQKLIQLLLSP

[2] = target: T2, GV sPLA2 (Homo sapiens, UniProt P39877); details: cited from earlier work
T2 sequence (P39877 21-138): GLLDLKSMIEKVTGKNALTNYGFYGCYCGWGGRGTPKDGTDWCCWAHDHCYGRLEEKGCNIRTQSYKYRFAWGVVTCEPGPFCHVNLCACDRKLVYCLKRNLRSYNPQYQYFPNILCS

[3] = target: T3, GIVA cPLA2 (Homo sapiens, UniProt P47712); details: cited from earlier work
T3 sequence (P47712 1-749): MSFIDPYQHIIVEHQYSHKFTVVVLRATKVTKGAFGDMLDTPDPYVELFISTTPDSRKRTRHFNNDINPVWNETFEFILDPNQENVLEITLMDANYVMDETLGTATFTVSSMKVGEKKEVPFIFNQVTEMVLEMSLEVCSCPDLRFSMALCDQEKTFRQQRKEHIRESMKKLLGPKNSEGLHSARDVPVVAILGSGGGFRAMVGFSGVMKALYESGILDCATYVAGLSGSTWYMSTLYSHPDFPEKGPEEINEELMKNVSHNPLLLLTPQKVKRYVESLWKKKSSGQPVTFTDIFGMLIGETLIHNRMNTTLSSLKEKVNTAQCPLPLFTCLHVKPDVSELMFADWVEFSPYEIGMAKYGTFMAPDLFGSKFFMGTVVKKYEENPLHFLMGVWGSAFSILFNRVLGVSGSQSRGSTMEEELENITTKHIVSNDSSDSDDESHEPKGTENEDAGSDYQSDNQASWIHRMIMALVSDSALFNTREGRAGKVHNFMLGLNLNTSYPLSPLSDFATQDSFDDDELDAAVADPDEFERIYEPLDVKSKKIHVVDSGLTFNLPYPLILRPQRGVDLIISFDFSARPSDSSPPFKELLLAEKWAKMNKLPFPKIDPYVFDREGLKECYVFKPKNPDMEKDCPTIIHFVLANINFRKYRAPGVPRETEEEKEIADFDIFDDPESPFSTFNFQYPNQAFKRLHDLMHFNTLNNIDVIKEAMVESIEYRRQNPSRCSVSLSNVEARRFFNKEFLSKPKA

[4] = test system: HAoSMCs; assay: Relative mRNA expression of osteogenic markers MSX2, CBFA1, ALPL in HAoSMCs; format: cell-based, human; details: 10 µM arachidonic acid, 24 hours, vs. control
Protocol: Primary HAoSMCs were cultured in Waymouth's MB 752/1 medium and Ham's F-12 nutrient mixture (1:1, Gibco, Life Technologies) supplemented with 10% FBS (Gibco, Life Technologies) and 100 U/ml penicillin and 100 μg/ml streptomycin. HAoSMCs were grown to confluency and used in all experiments from passages 4 to 10. Calcification was induced with 3 mM sodium phosphate buffer as calcification medium. Treatment was performed over a period of 11 days. Figs. 1C-E are diagrams indicating relative mRNA expression in HAoSMCs of MSX2 (Fig. 1C), CBFA1 (Fig. 1D) and ALPL (Fig. 1E) as scatter dot plots and as arithmetic means ± SEM (n=6; arbitrary units, a.u.). mRNA expression was determined following treatment of the HAoSMCs for 24 hours with control or with 2 mM β-glycerophosphate (Pi) without or with additional treatment with 10 μM AACOCF3. **(p<0.01), ***(p<0.001) statistically significant vs. control treated […]<0.001) statistically significant vs. HAoSMCs treated with Pi alone. […] Conditions were as above (for Fig 2), namely primary HAoSMCs were cultured in Waymouth's MB 752/1 medium and Ham's F-12 nutrient mixture (1:1, Gibco, Life Technologies) supplemented with 10% FBS (Gibco, Life Technologies) and 100 U/ml penicillin and 100 μg/ml streptomycin. HAoSMCs were grown to confluency and used in all experiments from passages 4 to 10. […]

[5] = test system: human platelets; details: read-out: IC50, arachidonic acid mobilization, cited from earlier work
[6] = test system: Ca2+-independent group VI iPLA2; details: cited from earlier work

Row | Compound | GVIA iPLA2 % Inhibition [1] | GV sPLA2 % Inhibition [2] | GIVA cPLA2 % Inhibition [3] | GIVA cPLA2 X1(50) [3] | also measured
1 | CCCCCCCCCCCCCCC(=O)C(=O)O [12e] | <25% | <25% |  |  | 
2 | CC(C)(C)OC(=O)CCCOC(=O)C(=O)CCCCc1ccccc1 [16c] | <25% | <25% | <25% |  | 
3 | O=C(O)CCCOC(=O)C(=O)CCCCc1ccc(-c2ccccc2)cc1 [17d] | <25% | <25% | >95% | 0.00068 ± 0.00007 | 
4 | O=C(O)CCCCOC(=O)C(=O)CCCCc1ccc(-c2ccccc2)cc1 [17f] |  | <25% | > 95% | 0.000078 ± 0.00001 | 
5 | O=C(O)CCCOC(=O)C(=O)CCCc1ccc(-c2ccccc2)cc1 [17g] |  | <25% | > 95% | 0.0065 ± 0.002 | 
6 | CCCCC/C=C\C/C=C\C/C=C\C/C=C\CCCC(=O)O [Arachidonic acid, arachidonic acid] |  |  |  |  | osteoinductive signaling (MSX2, CBFA1, ALPL relative mRNA expression) [4]: induces osteoinductive signaling
7 | CCCCCCCCCCOc1ccc(OCC(=O)Cn2cc(C(=O)OC)c3cc(C(=O)O)ccc32)cc1 [CAY10502, 1-[3-(4-decoxyphenoxy)-2-oxopropyl]-3-methoxycarbonylindole-5-carboxylic acid] |  |  |  |  | IC50 ([5]; A23187-stimulated human platelets): 570 nM; IC50 ([5]; TPA-stimulated human platelets): 0.9 nM
8 | CCOC(=O)CCCOC(=O)C(=O)CCCCc1ccccc1 [compound 19] | <25% | <25% |  |  | 
9 | CCCCCCCCCCCCCCC(O)C(=O)OCCCC(=O)O (centres unmarked) [compound 20] | <25% |  | <25% |  | 
10 | Palmityl trifluoromethylketone [PACOCF3] |  |  |  |  | IC50 [6]: 3800 nM
